This passage reports mutagenic call and call results from PubChem BioAssay AID1259408 (Genetic Toxicology Data Bank (GENE-TOX), 2018).

This data set has as its system GENE-TOX genotoxicity assays, various organisms and cells. The data set can be described thus: GENE-TOX mutagenicity studies. The conditions noted are these: for call: Assay Type: In vivo carcinogenicity studies, Assay Code: CCG+. The source says:
GENE-TOX provides genetic toxicology (mutagenicity) test data from expert peer review of open scientific literature for more than 3,000 chemicals from the United States Environmental Protection Agency (EPA). GENE-TOX was established to select assay systems for evaluation, review data in the scientific literature, and recommend proper testing protocols and evaluation procedures for these systems.
GENE-TOX covers the years 1991 - 1998. It is no longer updated.
This is an archive assay for GENE-TOX mutagenicity studies.

Setting [1] is: Species/Cell Type: Human diploid fibroblasts, Assay Type: Unscheduled DNA synthesis (UDS) in vitro, DNA effects, Assay Code: UDH-, Evaluation Type: Evaluation A (Pre-1980).
[2] abbreviates: Species/Cell Type: Saccharomyces cerevisiae, Assay Type: Mitotic recombination or gene conversion, Assay Code: YEH-, Evaluation Type: Evaluation A (Pre-1980).
[3] abbreviates: Species/Cell Type: Nonhuman, Assay Type: Sister-chromatid exchange (SCE) in vitro, Assay Code: SC2T, Evaluation Type: Evaluation B (Post-1980).
Setting [4] is: Species/Cell Type: Human lymphocytes, Assay Type: Sister-chromatid exchange (SCE) in vitro, Assay Code: SCLT, Evaluation Type: Evaluation B (Post-1980).
Setting [5] is: Species/Cell Type: Nonhuman, Evaluation Type: Evaluation A (Pre-1980).
The mark [6] stands for this setting: Species/Cell Type: Escherichia coli polA (W3119 vs P3478), Assay Type: Rec-assay, DNA effects (bacterial DNA repair), Assay Code: RE1+, Evaluation Type: Evaluation A (Pre-1980).
The mark [7] stands for this setting: Species/Cell Type: Human, Assay Type: Sister-chromatid exchange (SCE) in vitro, Assay Code: SC1+D, Dose Response: With dose response, Evaluation Type: Evaluation B (Post-1980).
Where [8] appears, read: Species/Cell Type: Salmonella typhimurium (one or more of the five standard strains: TA98, TA100, TA1535, TA1537, and TA1538), Assay Type: Histidine reverse gene mutation, Ames assay, Assay Code: SALT, Evaluation Type: Evaluation A (Pre-1980).
Where [9] appears, read: Species/Cell Type: Salmonella typhimurium (one or more of the five standard strains: TA98, TA100, TA1535, TA1537, and TA1538), Assay Type: Histidine reverse gene mutation, Ames assay, Assay Code: SAL+, Evaluation Type: Evaluation A (Pre-1980).
Setting [10] is: Species/Cell Type: Syrian hamster embryo (SA7/SHE) cells, Assay Type: Cell transformation, viral enhanced, Assay Code: CT7+, Evaluation Type: Evaluation A (Pre-1980).
The mark [11] stands for this setting: Species/Cell Type: Mammalian polychromatic erythrocytes, Assay Type: Micronucleus test, chromosome aberrations, Assay Code: MNTT, Evaluation Type: Evaluation B (Post-1980).
Where [12] appears, read: Species/Cell Type: Human, Assay Type: Sister-chromatid exchange (SCE) in vitro, Assay Code: SC1+, Evaluation Type: Evaluation B (Post-1980).

Calls of active or inactive are those of the source. The rule behind the calls is not given here.

For the compound `CCCOP(=S)(OCCC)OP(=S)(OCCC)OCCC`, the mutagenic call runs as follows: (Species/Cell Type: Bacillus subtilis (H17 vs M45), Assay Type: Rec-assay, spot test, DNA effects (bacterial DNA repair), Assay Code: REWT, Evaluation Type: Evaluation A (Pre-1980)) “no conclusion”; (Species/Cell Type: Drosophila melanogaster, Assay Type: Sex-linked recessive lethal gene mutation, Assay Code: SRL-, Evaluation Type: Evaluation A (Pre-1980)) “inactive; negative”; (Species/Cell Type: Escherichia coli WP2 UVRA, Assay Type: Tryptophan reverse gene mutation, Assay Code: WPU-*, Activation: With metabolic activation, Evaluation Type: Evaluation A (Pre-1980)) “inactive; negative”; (Species/Cell Type: Escherichia coli polA (W3119 vs P3478), Assay Type: Rec-assay, DNA effects (bacterial DNA repair), Assay Code: RE1T, Evaluation Type: Evaluation A (Pre-1980)) “no conclusion”; under setting [1], “inactive; negative”; under setting [2], “inactive; negative”. Moreover, for the setting “Species/Cell Type: Salmonella typhimurium (one or more of the five standard strains: TA98, TA100, TA1535, TA1537, and TA1538), Assay Type: Histidine reverse gene mutation, Ames assay, Assay Code: SAL-, Evaluation Type: Evaluation A (Pre-1980)”, the mutagenic call was “inactive; negative”.

`Cc1cn([C@H]2CC[C@@H](COP(=O)(O)OP(=O)(O)OP(=O)(O)O)O2)c(=O)[nH]c1=O`: the mutagenic call under setting [3] was “no conclusion”.

With `COc1cc([C@@H]2c3cc4c(cc3[C@H](O)[C@H]3COC(=O)[C@H]23)OCO4)cc(OC)c1OC`, the mutagenic call (Species/Cell Type: Chinese hamster ovary (CHO) cells, Assay Type: Forward gene mutation at the HPRT locus, Assay Code: CHOT, Evaluation Type: Evaluation B (Post-1980)) is reported as “no conclusion”.

As to `Cc1cccc(C)c1O`, under setting [4], the mutagenic call is “no conclusion”.

`CCc1cccc(CC)c1N(COC)C(=O)CCl`: the mutagenic call (Species/Cell Type: Saccharomyces cerevisiae, Assay Type: Mitotic recombination or gene conversion, Assay Code: YEC+*, Activation: With metabolic activation, Evaluation Type: Evaluation A (Pre-1980)) was “active; positive”.

On to `[Be]`, for which, under setting [5], the call was “active; positive”.

`CCOP(=S)(OCC)Oc1nc(Cl)c(Cl)cc1Cl`: the mutagenic call runs as follows: (Species/Cell Type: Drosophila melanogaster, Assay Type: Sex-linked recessive lethal gene mutation, Assay Code: SRLT, Evaluation Type: Evaluation A (Pre-1980)) “no conclusion”; under setting [6], “active; positive”; under setting [1], “inactive; negative”; under setting [7], “active; positive”; under setting [3], “no conclusion”; (Species/Cell Type: Nonhuman, Assay Type: Sister-chromatid exchange (SCE) in vivo, Assay Code: SC3-, Evaluation Type: Evaluation B (Post-1980)) “inactive; negative”. In addition, the mutagenic call runs as follows: under setting [2], “inactive; negative”; under setting [8], “no conclusion”.

As for `COc1cccc2c1C(=O)c1c(O)c3c(c(O)c1C2=O)C[C@@](O)(C(C)=O)C[C@@H]3O[C@H]1C[C@H](N)[C@H](O)[C@H](C)O1`, the mutagenic call (Species/Cell Type: Chinese hamster lung (V79) cells, Assay Type: Forward gene mutation at the HPRT or ouabain locus, Assay Code: V79+, Evaluation Type: Evaluation A (Pre-1980)) is “active; positive”; the mutagenic call (Species/Cell Type: Chinese hamster ovary (CHO) cells, Assay Type: Forward gene mutation at the HPRT locus, Assay Code: CHO+, Evaluation Type: Evaluation B (Post-1980)) is “active; positive”; the mutagenic call (Species/Cell Type: Glycine max (soybean), Assay Type: Gene mutation, Assay Code: GLMT, Evaluation Type: Evaluation A (Pre-1980)) is on record as “no conclusion”; the mutagenic call (Species/Cell Type: Human cell culture, Assay Type: Chromosome aberrations in vitro, Assay Code: CYZ+D, Dose Response: With dose response, Evaluation Type: Evaluation A (Pre-1980)) was “active; positive”; the mutagenic call (Species/Cell Type: Human lymphocytes or leukocytes, Assay Type: Chromosome aberrations in vitro, Assay Code: CY7+, Evaluation Type: Evaluation A (Pre-1980)) is “active; positive”; the mutagenic call (Species/Cell Type: Human lymphocytes, Assay Type: Sister-chromatid exchange (SCE) in vitro, Assay Code: SCL+D, Dose Response: With dose response, Evaluation Type: Evaluation B (Post-1980)) is “active; positive”. Moreover, the mutagenic call was “active; positive” under setting [7]; “active; positive” (Species/Cell Type: Nonhuman bone marrow, Assay Type: Chromosome aberrations, in vivo, Assay Code: CY#+, Evaluation Type: Evaluation A (Pre-1980)); “active; positive” (Species/Cell Type: Nonhuman lymphocytes or leukocytes, Assay Type: Chromosome aberrations in vivo, Assay Code: CY%+, Evaluation Type: Evaluation A (Pre-1980)); “active; positive” (Species/Cell Type: Nonhuman, Assay Type: Sister-chromatid exchange (SCE) in vitro, Assay Code: SC2+, Evaluation Type: Evaluation B (Post-1980)); “active; positive” (Species/Cell Type: Nonhuman, Assay Type: Sister-chromatid exchange (SCE) in vivo, Assay Code: SC3+D, Dose Response: With dose response, Evaluation Type: Evaluation B (Post-1980)); “active; positive” under setting [9]. Further, the mutagenic call (Species/Cell Type: Vicia faba, Assay Type: Chromosome aberrations, Assay Code: VIC+D, Dose Response: With dose response, Evaluation Type: Evaluation A (Pre-1980)) is “active; positive”. Under setting [5], the call was “active; positive”.

Regarding `CC(=O)[O-].CC(=O)[O-].[Co+2]`, the mutagenic call under setting [10] was “active; positive”.

Regarding `CCN(CC)c1nc(C)cc(OP(=S)(OC)OC)n1`, the mutagenic call under setting [11] is on record as “no conclusion”.

For `Nc1ccc(S(=O)(=O)O)c2ccccc12`, the mutagenic call under setting [8] is given as “no conclusion”.

In the case of `CCn1c(=O)c2c(ncn2CC)n(CC)c1=O`, the mutagenic call (Species/Cell Type: Allium cepa, Assay Type: Chromosome aberrations, Assay Code: ALC-, Evaluation Type: Evaluation A (Pre-1980)) is “inactive; negative”.

Take `COc1ccc2c(c1)C(=O)N(CCc1ccc(S(=O)(=O)NC(=O)NC3CCCCC3)cc1)C(=O)C2(C)C`: the mutagenic call (Species/Cell Type: Nonhuman, Assay Type: Sister-chromatid exchange (SCE) in vivo, Assay Code: SC3T, Evaluation Type: Evaluation B (Post-1980)) was “no conclusion”.

For `C1CN1P1(N2CC2)=NP(N2CC2)(N2CC2)=NP(N2CC2)(N2CC2)=N1`, the mutagenic call by setting is: (Species/Cell Type: Neurospora crassa, Assay Type: Forward gene mutation, Assay Code: NEF+, Evaluation Type: Evaluation A (Pre-1980)) “active; positive”; (Species/Cell Type: Nonhuman, Assay Type: Sister-chromatid exchange (SCE) in vivo, Assay Code: SC3+, Evaluation Type: Evaluation B (Post-1980)) “active; positive”.

As to `CCCN(CCC)C(=O)SCC`, the mutagenic call (Species/Cell Type: Neurospora crassa, Assay Type: Aneuploidy, chromosome aberrations, Assay Code: NEN-, Evaluation Type: Evaluation A (Pre-1980)) was “inactive; negative” and the mutagenic call (Species/Cell Type: Zea mays (corn), Assay Type: Gene mutation, Assay Code: ZEM-, Evaluation Type: Evaluation A (Pre-1980)) is “inactive; negative”.

As for `CCOC(=O)Nc1ccc(-c2c3ccccc3c3cc(N)ccc3[n+]2C)cc1`, the mutagenic call under setting [9] is “active; positive”.

With `Cc1ccc(O)c(C)c1`, the mutagenic call under setting [4] is reported as “no conclusion”.

On to `CCc1ccccc1`, for which the mutagenic call runs as follows: (Species/Cell Type: Human lymphocytes, Assay Type: Sister-chromatid exchange (SCE) in vitro, Assay Code: SCL+, Evaluation Type: Evaluation B (Post-1980)) “active; positive”; under setting [12], “active; positive”; (Species/Cell Type: Syrian hamster embryo (SA7/SHE) cells, Assay Type: Cell transformation, viral enhanced, Assay Code: CT7-, Evaluation Type: Evaluation A (Pre-1980)) “inactive; negative”.

As to `c1ccc(Nc2ccccc2)cc1`, the mutagenic call under setting [10] was “active; positive”.

`c1ccc2c(c1)ccc1ncccc12`: for the setting “Species/Cell Type: Salmonella typhimurium (one or more of the five standard strains: TA98, TA100, TA1535, TA1537, and TA1538), Assay Type: Histidine reverse gene mutation, Ames assay, Assay Code: SAL+*, Activation: With metabolic activation, Evaluation Type: Evaluation A (Pre-1980)”, the mutagenic call was “active; positive”.

With `OCl`, the mutagenic call by setting is: under setting [6], “active; positive”; (Species/Cell Type: Human lymphocytes or leukocytes, Assay Type: Chromosome aberrations in vitro, Assay Code: CY7+D, Dose Response: With dose response, Evaluation Type: Evaluation A (Pre-1980)) “active; positive”; under setting [12], “active; positive”; under setting [11], “no conclusion”; (Species/Cell Type: Nonhuman, Assay Type: Chromosome aberrations in vitro, Assay Code: CY&+D, Dose Response: With dose response, Evaluation Type: Evaluation A (Pre-1980)) “active; positive”; under setting [8], “no conclusion”.
